Reference: paper PMC11345830, “Exploration of Hydrazide-Based HDAC8 PROTACs for the Treatment of Hematological Malignancies and Solid Tumors” (Journal of Medicinal Chemistry, 2024)

How the values were obtained:
Format in all cases: cell-based
HCT116 cells = assay: Cell cycle analysis, HCT116; conditions: 48 h, control group 23.0%
Method: Jurkat cells (5 × 10^5) and HCT116 cells (3 × 10^5) were seeded on 6-well plates. The next day, cells were treated with indicated concentrations of compounds for 48 h. Cells were harvested after incubation, washed twice in cold PBS, centrifuged, and stained with a solution containing 20 μg/mL of Propidium iodide (PI) and 0.1% (v/v) Triton-X100 for 15 min at room temperature, followed by detection with NovoCyte Quanteon Flow Cytometer (Agilent Technologies, CA, USA).

GSPT1 = target: T1, GSPT1 (Homo sapiens, UniProt P15170); assay: GSPT1 level in Jurkat cells, Western blot; conditions: 6 h
T1 construct: endogenous in cells; host or cells: Jurkat
T1 sequence (P15170 whole entry): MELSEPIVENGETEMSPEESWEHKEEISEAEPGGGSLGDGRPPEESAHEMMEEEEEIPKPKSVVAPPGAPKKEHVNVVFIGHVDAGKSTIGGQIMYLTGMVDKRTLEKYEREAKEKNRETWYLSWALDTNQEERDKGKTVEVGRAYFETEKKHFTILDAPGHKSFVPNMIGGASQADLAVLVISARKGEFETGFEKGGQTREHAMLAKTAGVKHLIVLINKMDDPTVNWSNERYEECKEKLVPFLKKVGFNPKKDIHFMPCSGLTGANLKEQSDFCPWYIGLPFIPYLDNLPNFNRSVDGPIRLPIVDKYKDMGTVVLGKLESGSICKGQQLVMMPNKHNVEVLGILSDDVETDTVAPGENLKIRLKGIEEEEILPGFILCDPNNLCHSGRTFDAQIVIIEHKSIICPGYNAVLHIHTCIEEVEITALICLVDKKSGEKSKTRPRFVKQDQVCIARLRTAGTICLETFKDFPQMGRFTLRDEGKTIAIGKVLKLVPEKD

Jurkat cells = assay: Cell death determination by flow cytometry (Hoechst 33342/PI), Jurkat; conditions: 5 μM, 48 h
Method: Jurkat cells (5 × 10^5) were seeded on 6-well plates. The next day, cells were treated with indicated concentrations of compounds for 48 h. Cells were harvested after incubation, washed twice in cold PBS, centrifuged, and stained with 7 μM Hoechst 33342 and 2 μM of Propidium iodide (PI) sequentially, and then determined by NovoCyte Quanteon Flow Cytometer (Agilent Technologies, CA, USA). Cells stained only with Hoechst 33342 were counted as live cells, while cells stained with both Hoechst 33342 and PI were counted as dead cells.

IKZF3 = target: T2, IKZF3 (Homo sapiens, UniProt Q9UKT9); assay: IKZF3 level in Jurkat cells, Western blot; conditions: 6 h
T2 construct: endogenous in cells; host or cells: Jurkat
T2 sequence (Q9UKT9 whole entry): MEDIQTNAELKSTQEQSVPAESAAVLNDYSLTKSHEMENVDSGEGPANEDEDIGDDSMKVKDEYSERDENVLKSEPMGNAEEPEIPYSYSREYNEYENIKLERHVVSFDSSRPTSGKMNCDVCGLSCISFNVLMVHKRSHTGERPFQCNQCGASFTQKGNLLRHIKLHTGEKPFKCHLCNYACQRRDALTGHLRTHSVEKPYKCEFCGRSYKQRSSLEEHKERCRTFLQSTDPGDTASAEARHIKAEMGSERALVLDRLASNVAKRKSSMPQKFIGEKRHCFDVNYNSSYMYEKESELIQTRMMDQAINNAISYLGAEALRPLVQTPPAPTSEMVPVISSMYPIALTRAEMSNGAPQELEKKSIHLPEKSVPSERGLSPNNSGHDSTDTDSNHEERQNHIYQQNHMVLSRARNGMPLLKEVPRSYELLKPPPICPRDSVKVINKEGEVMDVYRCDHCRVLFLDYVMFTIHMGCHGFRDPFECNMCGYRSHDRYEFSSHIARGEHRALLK

HDAC7 = target: T3, HDAC7 (Homo sapiens, UniProt Q8WUI4); assay: HDAC7 level in Jurkat cells, Western blot; conditions: 6 h
T3 construct: endogenous in cells; host or cells: Jurkat
T3 sequence (Q8WUI4 1-952): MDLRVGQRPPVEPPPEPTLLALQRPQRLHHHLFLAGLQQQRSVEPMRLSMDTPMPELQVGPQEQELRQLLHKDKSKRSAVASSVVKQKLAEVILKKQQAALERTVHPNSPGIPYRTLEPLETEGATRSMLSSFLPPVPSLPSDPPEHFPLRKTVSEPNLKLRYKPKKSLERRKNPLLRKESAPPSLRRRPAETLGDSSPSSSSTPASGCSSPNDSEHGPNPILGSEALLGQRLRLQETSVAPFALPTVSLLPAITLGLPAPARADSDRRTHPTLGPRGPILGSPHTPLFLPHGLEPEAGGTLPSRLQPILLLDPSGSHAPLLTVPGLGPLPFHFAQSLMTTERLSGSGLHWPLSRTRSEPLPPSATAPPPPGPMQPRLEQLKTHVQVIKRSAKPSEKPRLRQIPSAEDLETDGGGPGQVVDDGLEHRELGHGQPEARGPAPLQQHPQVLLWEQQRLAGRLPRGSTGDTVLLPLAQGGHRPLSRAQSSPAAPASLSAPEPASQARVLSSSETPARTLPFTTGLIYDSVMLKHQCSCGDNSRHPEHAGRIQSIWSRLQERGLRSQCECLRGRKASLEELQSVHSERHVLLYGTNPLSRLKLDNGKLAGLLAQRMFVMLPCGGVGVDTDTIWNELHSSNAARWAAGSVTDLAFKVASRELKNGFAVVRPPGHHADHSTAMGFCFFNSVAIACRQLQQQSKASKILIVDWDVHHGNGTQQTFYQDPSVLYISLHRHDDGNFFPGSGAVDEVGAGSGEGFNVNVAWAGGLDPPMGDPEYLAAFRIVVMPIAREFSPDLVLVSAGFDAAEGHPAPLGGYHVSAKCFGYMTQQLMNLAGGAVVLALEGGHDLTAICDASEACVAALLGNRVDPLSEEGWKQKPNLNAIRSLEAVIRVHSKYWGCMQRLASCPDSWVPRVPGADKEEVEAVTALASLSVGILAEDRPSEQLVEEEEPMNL

acetyl-SMC3 (Ac-SMC3) = assay: Ac-SMC3 level in HCT116 cells, Western blot; conditions: 6 h

CCCCCCNNC(=O)c1ccc(CNC(=O)CN2CCC(c3ccc(NC4CCC(=O)NC4=O)cc3)CC2)cc1 (stereo not drawn) [Z16, 2-(4-(4-((2,6-Dioxopiperidin-3-yl)amino)phenyl)piperidin-1-yl)-N-(4-(2-hexylhydrazine-1-carbonyl)benzyl)acetamide]
proportion of cells at G2/M phase (HCT116 cells; 0.13 μM): 24.1% | proportion of cells at G2/M phase (HCT116 cells; 0.37 μM): 26.4% | proportion of cells at G2/M phase (HCT116 cells; 1.1 μM): 26.2% | proportion of cells at G2/M phase (HCT116 cells; 3.3 μM): 38.8% | intracellular level of GSPT1 (in words) (GSPT1): did not significantly affect | cell death induced (Jurkat cells): 10% | intracellular level of IKZF3 (in words) (IKZF3): did not significantly affect | HDAC7 degradation (in words) (HDAC7): no obvious | concentration at which increased acetylation of SMC3 started (acetyl-SMC3 (Ac-SMC3)): 40 nM
